Test results reported in patent publication US20250152504A1, “INTRAUTERINE SYSTEMS COMPRISING ANTI-INFECTIVES FOR STEADY-STATE ACCUMULATION TO DISTAL EXTRAUTERINE TISSUE” (priority 2023, published 2025).
Converted amounts (≈) assume the structure as drawn.

What was measured:
[1] = In vitro drug release from TPU matrix delivery system prototypes; type: physicochemical; details: for Predicted T50%: from best-fit release model
Protocol: Films were cut into disks with a 1-inch diameter die punch; disks were stacked and placed between two pieces of aluminum foil and compressed under a metal weight on a 120° C. dry bath. Thickness was monitored frequently until it measured 3.5 mm with digital calipers calibrated to 0.01 mm. Devices were cut from thick films using a custom rectangular 3.5 mm×13.3 mm die punch.
All release tests were performed in sink conditions in PBS supplemented with 2% w/v Cremophor® A25/Emulgin® B25. For the first 7-days of drug release testing, 1 mL samples were taken daily; following 7 days, samples were taken every 3-4 days. At all timepoints, bottles were drained and replaced with fresh media following sampling.
A qualification for selecting an optimal TPU for DPV delivery in this application is the time to achieve 50% cumulative release of drug. This is based on the standard use time of hormonal IUDs, which in practice are removed once about half of the initial load of drug is depleted from the device. Here, this standard was used as a benchmark to evaluate the sustained release properties of candidate delivery system designs. […] The fit of first-order release kinetics to the data was assessed. Equations 1 and 2 describe drug release from a system where dissolution is dependent on a concentration gradient.
Where k is the first order rate constant, Ct is the concentration of drug in solution at time t and C0 is the initial concentration of drug.
Where Q is the amount of drug release in time t and kh is the Higuchi release constant.
Based on the best-fit square-root of time relation, T50% was calculated for each TPU. […] Korsmeyer and Peppas provided a method for understanding drug release mechanisms of swelling and non-swelling polymeric systems, given by Equation 4: […]
Where Mt/M∝ is the fraction of drug released at time t, K is the rate constant, and n is the release exponent.

physchem = type: physicochemical; details: 37 °C, aqueous with cosolvent or surfactant or cyclodextrin, thermodynamic from solid
Source text: FIGS. 6A-6C are graphs showing differential dapivirine release driven by polymer crystallinity and water penetration, in accordance with the present technology.

[2] = type: physicochemical
Source text: Both polyether sheath reservoirs (R1 & R2) released DPV faster than polycarbonate sheath reservoirs (R3 & R4). […] Thus, with DPV loaded at 1 wt % which is below the saturation solubility, these reservoirs contain a nonconstant activity source. Pursuant to the behavior of reservoirs with a nonconstant activity source, these reservoirs released drug following first-order release kinetics. Despite this expectation, drug release from all four reservoir devices was described slightly better by a square-root of time dependence.

[3] = type: in vivo; details: baboon, about one month of intrauterine instillation
Source text: Animals were monitored for signs of discomfort including decreased appetite, lethargy, and hunched posture. Tissue biopsies for histological analysis were fixed in 4% paraformaldehyde, dehydrated in alcohol, and embedded in paraffin. Cross sectional samples (5 μm) were taken and stained with hematoxylin and eosin (H&E) stain.
Vaginal tissue biopsies taken pre-insertion and 28-days post-insertion show characteristic features of healthy a vaginal epithelium, including a multilayered stratified squamous epithelium consisting of enucleated cells, a densely nucleated basal cell layer, and an inconspicuous lamina propria. Vaginal tissue biopsied 28-days post insertion has an intact stratified squamous epithelium that measures approximately 200 μm thick. Both pre-insertion and 28-days post-insertion cervical biopsies contain regions of a single columnar epithelium, while the underlying cervical stroma is composed of densely vascularized, fibromuscular tissue. The 28-day post-insertion cervical biopsy contains a thick stratus corneum of the exocervix; the epithelium overlays a prominent lymphoid aggregate, a feature of mucosa-associated lymphoid tissue (MALT) in the type I mucosa of the endocervix. Some cellular atypia is notable as a few epithelial cells display irregular nuclear membranes and perinuclear halos. […]

[4] = In vitro release of 1% dapivirine from ethylene-vinyl acetate polymers; type: physicochemical; details: 1% DPV in EVA, within 720 hours
Source text: Ethylene-vinyl acetate polymers (EVA) were also investigated for the use in the intrauterine systems described herein. FIGS. 19A-19B are graphs showing release for dapirivine (DPV) in ethylene-vinyl acetate polymers (EVAs), in accordance with the present technology.

HIV-1 = details: cited from earlier work
[5] = cited from earlier work

Cc1cc(C)c(Nc2ccnc(Nc3ccc(C#N)cc3)n2)c(C)c1 [DPV, dapivirine]
DPV dose released per day ([1]; 1 wt % DPV, all four TPUs, within target range): 10 to 50 µg/day
Actual T50% ([1]; 1 wt % loading, TPU1 matrix): 12 days
First-Order: k ([1]; 1 wt % loading, TPU1 matrix): 0.002, h^−1
Higuchi: kH ([1]; 1 wt % loading, TPU1 matrix): 0.029, %/h^1/2
Korsmeyer-Peppas Constant: n ([1]; 1 wt % loading, TPU1 matrix): 0.525,
Predicted T50% ([1]; 1 wt % loading, TPU1 matrix): 12 days
Actual T50% ([1]; 1 wt % loading, TPU2 matrix): 12 days
First-Order: k ([1]; 1 wt % loading, TPU2 matrix): 0.002, h^−1
Higuchi: kH ([1]; 1 wt % loading, TPU2 matrix): 0.027, %/h^1/2
Korsmeyer-Peppas Constant: n ([1]; 1 wt % loading, TPU2 matrix): 0.549,
Predicted T50% ([1]; 1 wt % loading, TPU2 matrix): 13.5 days
Actual T50% ([1]; 1 wt % loading, TPU3 matrix): 7 days
First-Order: k ([1]; 1 wt % loading, TPU3 matrix): 0.004, h^−1
Higuchi: kH ([1]; 1 wt % loading, TPU3 matrix): 0.038, %/h^1/2
Korsmeyer-Peppas Constant: n ([1]; 1 wt % loading, TPU3 matrix): 0.662,
Predicted T50% ([1]; 1 wt % loading, TPU3 matrix): 7 days
First-Order: k ([1]; 1 wt % loading, TPU4 matrix): 0.0007, h^−1
Higuchi: kH ([1]; 1 wt % loading, TPU4 matrix): 0.017, %/h^1/2
Korsmeyer-Peppas Constant: n ([1]; 1 wt % loading, TPU4 matrix): 0.614,
Predicted T50% ([1]; 1 wt % loading, TPU4 matrix): 36 days
cumulative release of encapsulated drug ([1]; 1 wt %, TPU3 matrix, by 30 days / one month): approximately 95%
First-Order: k ([1]; 16.6 wt % loading, TPU4 matrix): 0.0005 h⁻¹
Higuchi: kH ([1]; 16.6 wt % loading, TPU4 matrix): 0.014, %/h^1/2
Predicted T50% ([1]; 16.6 wt % loading, TPU4 matrix): 53.5 days
cumulative release of loaded drug ([1]; 16.6 wt %, TPU4 matrix, after 30 days): approximately 33.5%
release rate ([1]; 16.6 wt %, TPU4 matrix, final rate at 30 days, per each ⅓ segment of the device): approximately 62.56 μg/day
solubility (physchem): 164 ± 9.4 µg/mL (≈ 497 µM)
saturation solubility of DPV in a PY-PT43DE20 core [2]: 5.46±0.93 wt %
tolerability / histological findings [3]: likely safe and well-tolerated in baboons
cumulative release of loaded DPV [4]: about 80%
inhibition of provirus formation (HIV-1; at 1 nM (0.33 ng/mL)): 99%
infection prevented (dissemination of HIV-1 by CD4+ dendritic cells) (HIV-1; at 10 nM (3.3 ng/mL)): 90%
IC90 in cervicovaginal tissue (HIV-1; concentration with which tissue explants were treated): 3.3 ng/mL (≈ 0.01 µM)
lowest concentration inhibiting productive infection of ectocervical tissue (HIV-1; ex vivo viral inhibition model): 0.1 nM
Cmax ([5]; in vivo): 0.355 ng/mL
treatment-emergent adverse events ([5]; in vivo): no treatment-emergent adverse events were observed
plasma concentration required to reduce viral load ([5]; oral DPV administration): 100 to 200 ng/mL
